According to patent US20170071840A1, “POLYPHENOL/FLAVONOID COMPOSITIONS AND METHODS OF FORMULATING ORAL HYGIENIC PRODUCTS” (VIZURI HEALTH SCIENCES LLC, priority 2015, published 2017):
Each block holds one molecule with its values, some of them ahead of it.

Legend:
[1] = Saliva levels of apigenin in chronic 1% apigenin toothpaste users (Example 12); assay type: in vivo, human
Protocol: Two subjects who have used PeroxiCare® with apigenin at a 1% concentration on a chronic basis provided saliva samples at:
Saliva was collected at each time point in 50 ml Falcon tubes and immediately transferred to a freezer. All samples were transported to Tufts University within 24 hours of collection. Apigenin in saliva was quantified using high performance liquid chromatograph (HPLC) with electrochemical detection (ECD). Apigenin in 1 ml saliva was extracted using 3 ml acetonitrile. After 2 min of rigorous vortexing, the mixture was spun at 2,000 rpm for 15 min at 4° C. Supernatant was dried under N2 gas, reconstituted with mobile phase A, and analyzed for apigenin with HPLC-ECD. The limit of quantification (LOQ) for apigenin and EGCG in this assay is 15 and 25 ng/ml saliva, respectively.

[2] = Solubility in PS80 via the thermal processing method; assay type: physicochemical
[3] = Heat solubilization in Kolliphor RH-40 / Polysorbate 80; assay type: physicochemical; conditions: curcumin as co-solubilizer
[4] = Solubility in water; assay type: physicochemical; conditions: 20° C.
[5] = pH for stable aqueous microemulsion; assay type: physicochemical; conditions: nonionic surfactants Polysorbate 80 and Cremophor/Kolliphor RH-40
Description: In one embodiment, a flavonoid/polyphenol microemulsion can be made as follows: • The mixing of a flavonoid/polyphenol with an alkali metal component (e.g., alkali metal hydroxide(s) and/or alkaline metal salt(s)) to form an alkali metal flavonoid/polyphenol salt within an aqueous solution. • Adding a surfactant in the ratio from about 5 to 20 wt. % of the flavonoid/polyphenol to 95 to 80 wt. % of a surfactant; preferable a nonionic surfactant. • This mixture is thoroughly stirred to form a uniform clear solution. • Adjusting (e.g., acidifying) the alkali metal flavonoid/polyphenol salt with an agent (e.g., an acidic agent such as acetic acid and/or hydrochloric acid) to a pH level required to form a clear and stable microemulsion.
Stable microemulsions with apigenin and the nonionic surfactants, Polysorbate 80 and Cremophor/Kolliphor RH-40, were achieved provided a pH level of 8.0 to 8.5 was maintained. For luteolin, it as determined that a pH of 7 was required to maintain a stable aqueous microemulsion; and for resveratrol, a pH of >4.5 to 7.5.

[6] = Solubilization in Listerine mouth rinse; assay type: physicochemical
Protocol: 100 Grams of the Listerine® Resveratrol Containing Mouth Rinse Formulation was Prepared as Follows: • 1. 98.4 grams of the Listerine® caramel colored mouth rinse was added to a 300 ml Pyrex glass beaker. The pH of the Listerine® caramel colored mouth rinse was initially determined via pH indicator strips to be decidedly acidic at approximately 4.5. • 2. 1.2 grams of Resveratrol powder was added to the solution of Step 1. • 3. About 0.2 grams of fine NaOH crystals were added to the mixture from Step 2 and thoroughly mixed. A uniformly caramel colored blend resulted with a measured pH of ˜10. […] The pH of the mixture from Step 3 was adjusted to a pH 6.5 by the addition of about 0.2 grams of citric acid crystals. A transparent solution resulted with a resveratrol concentration of 1.2 mg/ml.
• 1. 98.6 grams of the Listerine® caramel colored mouthrinse was added to a 300 ml Pyrex glass beaker. The pH of the Listerine® caramel colored mouthrinse was initially determined via pH indicator strips to be decidedly acidic at approximately 4.5. • 2. 1.2 grams of Luteolin powder was added to the solution of Step 1. • 3. About 0.2 grams of fine NaOH crystals were added to the mixture from Step 2 and thoroughly mixed. A uniformly caramel colored blend resulted with a measured pH of ˜10. […] The pH of the mixture from Step 2 was adjusted to a pH 8 by the addition of about 0.2 grams of citric acid crystals. […]

- persistence of apigenin levels in saliva post-brushing [1]: at least 8 hours
- stable apigenin concentrate in PS80 ([2]; 5.0 wt. % apigenin in PS80, heated, cooled to ambient): 50 mg/mL
- apigenin solubilized in PS 80 [3]: more than 5%
- apigenin solubilized in RH-40 [3]: more than 5%
Compound: O=c1cc(-c2ccc(O)cc2)oc2cc(O)cc(O)c12 [Apigenin, 4′,5,7,-trihydroxyflavone]

- PS80 Solubility ([2]; 20° C., thermal processing, not the maximum solubility levels): 50 mg/mL
- Water Solubility [4]: ~5 mg/mL
Compound: O.Oc1cc(O)c2c(c1)O[C@H](c1ccc(O)c(O)c1)[C@@H](O)C2 [Catechin]

Compound: O=c1cc(-c2ccc(O)c(O)c2)oc2cc(O)cc(O)c12 [luteolin, 3′,4′,5,7-tetrahydroxyflavone]
- pH level for stable microemulsion [5]: 7
- concentration in transparent solution ([6]; Listerine mouthrinse, pH 8): 1500 µg/mL

- concentration in transparent solution ([6]; Listerine mouth rinse, pH 6.5): 1200 µg/mL
Compound: Oc1ccc(C=Cc2cc(O)cc(O)c2)cc1 [resveratrol]
